In one experiment the target is T1, PTP-SL (Homo sapiens, UniProt Q15256).
T1 sequence (Q15256 22-657): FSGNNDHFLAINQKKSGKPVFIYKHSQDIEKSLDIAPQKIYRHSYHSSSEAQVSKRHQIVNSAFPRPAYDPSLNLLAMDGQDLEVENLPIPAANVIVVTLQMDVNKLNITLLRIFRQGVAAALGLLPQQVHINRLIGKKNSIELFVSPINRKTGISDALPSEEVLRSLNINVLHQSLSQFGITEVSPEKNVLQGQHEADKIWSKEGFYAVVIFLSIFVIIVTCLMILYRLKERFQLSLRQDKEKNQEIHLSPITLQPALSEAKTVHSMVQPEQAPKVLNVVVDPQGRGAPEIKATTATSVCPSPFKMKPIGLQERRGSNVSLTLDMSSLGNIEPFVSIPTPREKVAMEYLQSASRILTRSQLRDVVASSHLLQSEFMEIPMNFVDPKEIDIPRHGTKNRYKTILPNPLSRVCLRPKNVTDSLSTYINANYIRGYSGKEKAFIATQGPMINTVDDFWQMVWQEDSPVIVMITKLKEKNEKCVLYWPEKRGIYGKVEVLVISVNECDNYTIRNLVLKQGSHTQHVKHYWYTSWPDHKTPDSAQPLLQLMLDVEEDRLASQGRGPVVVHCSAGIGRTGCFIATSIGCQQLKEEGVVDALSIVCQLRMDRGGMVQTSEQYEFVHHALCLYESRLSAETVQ
The experiment is described as follows: Dose-response OMFP phosphatase assay, PTP-SL. The experiment is classed as biochemical. To be noted: read-out: IC50 PTP-SL; OMFP substrate.

The target in a further experiment is T2, HePTP H237A mutant (Homo sapiens, UniProt P35236, H258A).
T2 sequence (P35236 22-360 H258A limits assumed): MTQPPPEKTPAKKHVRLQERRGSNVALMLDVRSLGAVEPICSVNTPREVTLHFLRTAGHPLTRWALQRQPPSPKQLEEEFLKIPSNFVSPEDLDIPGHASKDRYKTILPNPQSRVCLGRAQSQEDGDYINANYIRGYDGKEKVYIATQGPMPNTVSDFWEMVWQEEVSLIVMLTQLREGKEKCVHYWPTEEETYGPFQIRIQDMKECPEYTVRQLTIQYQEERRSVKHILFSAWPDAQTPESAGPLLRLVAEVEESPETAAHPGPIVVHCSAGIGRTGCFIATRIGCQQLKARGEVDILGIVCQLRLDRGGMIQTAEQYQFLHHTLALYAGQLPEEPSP
The experiment is described as follows: Dose-response OMFP phosphatase assay, HePTP H237A mutant. To be noted: read-out: IC50 HePTP H237A. Type of experiment: biochemical.

What is called IC50 is the concentration needed to halve the response being measured. Take `O=C(O)c1ccccc1-c1ccc(/C=c2\sc3nc4cc(Br)cnc4n3c2=O)o1` [Compound 1]: the figures for the concentration for half-maximal inhibition (IC50) at PTP-SL and on HePTP H237A mutant were 1100 nM and 2800 nM, respectively.

(Values after publication PMC3288537 (ACS Chemical Biology, 2011).)
